Laboratory results as given in US20180148429A1 (SELVITA S.A., priority 2015, published 2018).

Biological target: T1, Human recombinant His-tagged PFKFB3 (Homo sapiens, UniProt Q16875)
T1 construct: His; made in house
Test: PFKFB3 IC50 determination assay (in vitro kinase assay, modified ADP-Glo system)
Format: biochemical
Conditions: not given
Experimental: PFKFB3 IC50 Determination Assay
In vitro kinase assay used to determine IC50 values for tested inhibitors is based on a modified ADP-Glo™ system (Promega) and consists of two parts:
1. Kinase reaction—performed in optimized conditions. At this step PFKFB3 phosphorylates its substrate fructose-6-phosphate using ATP as a source of phosphate to produce fructose-2,6-bisphosphate and ADP. Reaction is performed at Km values for ATP and substrate using optimized buffer composition and time of the reaction. Human recombinant His-tagged PFKFB3 (PFKFB3 BATCH II SEC) with confirmed activity is produced and purified in-house.
2. Detection of ADP as a product of the reaction using ADP-Glo™ system. This part is conducted by using the commercially available kit ADP-Glo™ Kinase Assay (Promega, cat. No# V9103) according to manufacturer's instruction, modified by 5× dilutions of assay reagents (both ADP-Glo™ Reagent and Kinase Detection Solution).
Test compounds are dissolved in DMSO and then transferred to the V-bottom 96-well plate.
15 μL per well of Mix 1 is transferred to assay wells of 96-well white plate. […] Total reaction volume is 30 μL per well. Samples are tested in duplicates. Final concentration of DMSO in the reaction is 6.7%. Conditions needed for performing PFKFB3 (PFKFB3 BATCH II SEC) in vitro kinase assay are given below:
This protocol is based on Technical Bulletin, ADP-Glo™ Kinase Assay (Promega) and is adapted to 96-well plate containing 30 μL reaction mixture:
The plate is incubated for 90 minutes on a shaker at rt. […] Plate is incubated for 40 minutes on a shaker at rt, protected from light. Luminescence is measured in the plate reader Synergy 2 (BioTek).
Luminescent readouts for compounds tested in 10 concentrations (routinely from 100 μM to […], […] serial dilutions) in duplicates, as well as for positive control, are first normalized to no-substrate negative control by its subtraction. In the next step, % of normalized positive control is calculated for each data point and plotted against test compound concentration:
% of control—percent of positive control normalized to no-substrate negative control Lumcpd—luminescence of test compound Lumneg—luminescence of no-substrate negative control Lumpos—luminescence of positive control
IC50 parameter is determined by the GraphPad Prism 5.0 software
[log(inhibitor) vs. response−Variable slope (four parameters)].

T1 sequence (Q16875 whole entry): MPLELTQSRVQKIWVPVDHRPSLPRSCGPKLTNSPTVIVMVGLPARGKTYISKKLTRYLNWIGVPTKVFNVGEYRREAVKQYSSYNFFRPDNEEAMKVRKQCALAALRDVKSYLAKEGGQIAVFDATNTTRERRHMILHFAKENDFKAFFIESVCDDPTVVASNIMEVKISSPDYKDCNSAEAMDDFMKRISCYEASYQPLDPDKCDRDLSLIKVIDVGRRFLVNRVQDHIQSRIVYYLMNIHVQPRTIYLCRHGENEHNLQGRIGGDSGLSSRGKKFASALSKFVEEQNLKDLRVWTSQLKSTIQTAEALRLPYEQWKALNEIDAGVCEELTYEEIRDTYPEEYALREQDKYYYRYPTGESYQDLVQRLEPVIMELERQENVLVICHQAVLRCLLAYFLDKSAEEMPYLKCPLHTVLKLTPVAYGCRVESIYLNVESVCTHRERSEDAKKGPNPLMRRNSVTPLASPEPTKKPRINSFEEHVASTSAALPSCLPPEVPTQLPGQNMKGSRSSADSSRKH

| Structure (SMILES) | IC50 |
| --- | --- |
| Cc1nc(CNc2cc(-c3ccc4ccn(C)c4c3)c3nccnc3c2)n[nH]1 [Example 283, N-[(5-methyl-1H-1,2,4-triazol-3-yl)methyl]-8-(1-methyl-1H-indol-6-yl)quinoxalin-6-amine] | 1000 to 10000 nM |
| COc1ccc(C(Nc2cc(-c3ccc4ccn(C)c4c3)c3nccnc3c2)c2cnnn2C)cn1 (stereo not drawn) [Example 299, N-[(6-methoxypyridin-3-yl)(1-methyl-1H-1,2,3-triazol-5-yl)methyl]-8-(1-methyl-1H-indol-6-yl)quinoxalin-6-amine] | 1 to 1000 nM |

Same assay, conditions: ADP-Glo; ATP 20 μM (Km), fructose-6-phosphate 2 μM (Km), 25 nM PFKFB3, 2 h, rt; read-out: PFKFB3 IC50

| Structure (SMILES) | IC50 |
| --- | --- |
| Cn1ccc2ccc(-c3cc(NCc4ccns4)cc4nccnc34)cc21 [Example 281, 8-(1-methyl-1H-indol-6-yl)-N-[(1,2-thiazol-5-yl)methyl]quinoxalin-6-amine] | 1 to 1000 nM |
| Cc1nnc(CNc2cc(-c3ccc4ccn(C)c4c3)c3nccnc3c2)o1 [Example 282, N-[(5-methyl-1,3,4-oxadiazol-2-yl)methyl]-8-(1-methyl-1H-indol-6-yl)quinoxalin-6-amine] | 1000 to 10000 nM |
| Cn1ccc2ccc(-c3cc(NCc4c[nH]cn4)cc4nccnc34)cc21 [Example 284, N-(1H-imidazol-4-ylmethyl)-8-(1-methyl-1H-indol-6-yl)quinoxalin-6-amine] | 10000 to 100000 nM |
| Cc1ncc(CNc2cc(-c3ccc4ccn(C)c4c3)c3nccnc3c2)n1C [Example 285, N-[(1,2-dimethyl-1H-imidazol-5-yl)methyl]-8-(1-methyl-1H-indol-6-yl)quinoxalin-6-amine] | 1000 to 10000 nM |
| CC(=O)N1CCC(C(Nc2cc(-c3ccc4ccn(C)c4c3)c3nccnc3c2)c2cnccc2C)CC1 (stereo not drawn) [Example 287, 1-[4-({[8-(1-methyl-1H-indol-6-yl)quinoxalin-6-yl]amino}(4-methylpyridin-3-yl)methyl)piperidin-1-yl]ethan-1-one] | 1 to 1000 nM |
| Cn1ccc2ccc(-c3cc(NC(c4cccnc4)c4ccnc(N)c4)cc4nccnc34)cc21 (stereo not drawn) [Example 288, N-[(2-aminopyridin-4-yl)(pyridin-3-yl)methyl]-8-(1-methyl-1H-indol-6-yl)quinoxalin-6-amine] | 1 to 1000 nM |
| CC(=O)N1CC(C(Nc2cc(-c3ccc4ccn(C)c4c3)c3nccnc3c2)c2cccnc2)C1 (stereo not drawn) [Example 289, 1-[3-({[8-(1-methyl-1H-indol-6-yl)quinoxalin-6-yl]amino}(pyridin-3-yl)methyl)azetidin-1-yl]ethan-1-one] | 1000 to 10000 nM |
| Cn1cnc(C(Nc2cc(-c3ccc4ccn(C)c4c3)c3nccnc3c2)c2cccnc2)c1 (stereo not drawn) [Example 290, N-[(1-methyl-1H-imidazol-4-yl)(pyridin-3-yl)methyl]-8-(1-methyl-1H-indol-6-yl)quinoxalin-6-amine] | 1000 to 10000 nM |
| COc1ccc(C(Nc2cc(-c3ccc4sc(N)nc4c3)c3nccnc3c2)C2CCN(C(C)=O)CC2)cn1 (stereo not drawn) [Example 291, 1-[4-({[8-(2-amino-1,3-benzothiazol-5-yl)quinoxalin-6-yl]amino}(6-methoxypyridin-3-yl)methyl)piperidin-1-yl]ethan-1-one] | 10000 to 100000 nM |
| CC(=O)N1CCC(C(Nc2cc(-c3ccc(Br)cc3)c3nccnc3c2)c2cccnc2)CC1 (stereo not drawn) [Example 292, 1-[4-({[8-(4-bromophenyl)quinoxalin-6-yl]amino}(pyridin-3-yl)methyl)piperidin-1-yl]ethan-1-one] | 10000 to 100000 nM |
| CC(=O)N1CCC(C(Nc2cc(-c3ccc4sc(N)nc4c3)c3nccnc3c2)c2cccnc2)CC1 (stereo not drawn) [Example 293, 1-[4-({[8-(2-amino-1,3-benzothiazol-5-yl)quinoxalin-6-yl]amino}(pyridin-3-yl)methyl)piperidin-1-yl]ethan-1-one] | 1000 to 10000 nM |
| CC(=O)N1CCC(C(Nc2cc(-c3ccc4ccn(C)c4c3)c3nccnc3c2)c2ccc(=O)n(C)c2)CC1 (stereo not drawn) [Example 294, 5-[(1-acetylpiperidin-4-yl)({[8-(1-methyl-1H-indol-6-yl)quinoxalin-6-yl]amino})methyl]-1-methyl-1,2-dihydropyridin-2-one] | 1000 to 10000 nM |
| COc1ccc(C(Nc2cc(-c3ccc4sc(N)nc4c3)c3nccnc3c2)c2cccnc2)cn1 (stereo not drawn) [Example 295, 8-(2-amino-1,3-benzothiazol-5-yl)-N-[(6-methoxypyridin-3-yl)(pyridin-3-yl)methyl]quinoxalin-6-amine] | 1 to 1000 nM |
| Cn1ccc2ccc(-c3cc(NC(c4cccnc4)c4ccc(N)nc4)cc4nccnc34)cc21 (stereo not drawn) [Example 296, N-[(6-aminopyridin-3-yl)(pyridin-3-yl)methyl]-8-(1-methyl-1H-indol-6-yl)quinoxalin-6-amine] | 1 to 1000 nM |
| COc1ccc(C(c2cccnc2)N(C)c2cc(-c3ccc4ccn(C)c4c3)c3nccnc3c2)cn1 (stereo not drawn) [Example 297, N-[(6-methoxypyridin-3-yl)(pyridin-3-yl)methyl]-N-methyl-8-(1-methyl-1H-indol-6-yl)quinoxalin-6-amine] | 10000 to 100000 nM |
| CNC(=O)N1CCC(C(Nc2cc(-c3ccc4ccn(C)c4c3)c3nccnc3c2)c2cccnc2)CC1 (stereo not drawn) [Example 298, N-methyl-4-({[8-(1-methyl-1H-indol-6-yl)quinoxalin-6-yl]amino}(pyridin-3-yl)methyl)piperidine-1-carboxamide] | 1 to 1000 nM |
| CN(C)C(=O)N1CCC(C(Nc2cc(-c3ccc4ccn(C)c4c3)c3nccnc3c2)c2cccnc2)CC1 (stereo not drawn) [Example 300, N,N-dimethyl-4-({[8-(1-methyl-1H-indol-6-yl)quinoxalin-6-yl]amino}(pyridin-3-yl)methyl)piperidine-1-carboxamide] | 1 to 1000 nM |
| Cn1nccc1CNc1cc(-c2ccc3ccn(C)c3c2)c2nccnc2c1 [Example 301, 8-(1-methyl-1H-indol-6-yl)-N-[(1-methyl-1H-pyrazol-5-yl)methyl]quinoxalin-6-amine] | 1000 to 10000 nM |
| COc1ccc(C(Nc2cc(-c3ccc4scc(C)c4c3)c3nccnc3c2)c2cnnn2C)cn1 (stereo not drawn) [Example 302, N-[(6-methoxypyridin-3-yl)(1-methyl-1H-1,2,3-triazol-5-yl)methyl]-8-(3-methyl-1-benzothiophen-5-yl)quinoxalin-6-amine] | 1 to 1000 nM |
| CN1C2CCC1CC(C(Nc1cc(-c3ccc4ccn(C)c4c3)c3nccnc3c1)c1cccnc1)C2 (stereo not drawn) [Example 304, 8-(1-methyl-1H-indol-6-yl)-N-({8-methyl-8-azabicyclo[3.2.1]octan-3-yl}(pyridin-3-yl)methyl)quinoxalin-6-amine] | 1 to 1000 nM |
| CNc1ccc(C(Nc2cc(-c3ccc4ccn(C)c4c3)c3nccnc3c2)c2cccnc2)cn1 (stereo not drawn) [Example 305, 8-(1-methyl-1H-indol-6-yl)-N-{[6-(methylamino)pyridin-3-yl](pyridin-3-yl)methyl}quinoxalin-6-amine] | 1000 to 10000 nM |
| Cn1cc(CNc2cc(-c3ccc4ccn(C)c4c3)c3nccnc3c2)cn1 [Example 306, 8-(1-methyl-1H-indol-6-yl)-N-[(1-methyl-1H-pyrazol-4-yl)methyl]quinoxalin-6-amine] | 1000 to 10000 nM |
| CC(=O)Nc1ccc(C(Nc2cc(-c3ccc4ccn(C)c4c3)c3nccnc3c2)c2cccnc2)cn1 (stereo not drawn) [Example 307, N-[5-({[8-(1-methyl-1H-indol-6-yl)quinoxalin-6-yl]amino}(pyridin-3-yl)methyl)pyridin-2-yl]acetamide] | 10000 to 100000 nM |
| Cn1ccc2ccc(-c3cc(NC(c4cccnc4)C4CCC(N)CC4)cc4nccnc34)cc21 (stereo not drawn) [Example 308, N-[(4-aminocyclohexyl)(pyridin-3-yl)methyl]-8-(1-methyl-1H-indol-6-yl)quinoxalin-6-amine] | 1 to 1000 nM |
| COc1ccc(C(Nc2cc(-c3ccc4ccn(C)c4c3)c3nccnc3c2)c2ccc(OC)nc2)cn1 [Example 309, N-[bis(6-methoxypyridin-3-yl)methyl]-8-(1-methyl-1H-indol-6-yl)quinoxalin-6-amine] | 1000 to 10000 nM |
| CC(=O)N1CCC([C@@H](Nc2cc(-c3ccc4scc(C)c4c3)c3nccnc3c2)c2cccnc2)CC1 [Example 310, 1-{4-[(R)-{[8-(3-methyl-1-benzothiophen-5-yl)quinoxalin-6-yl]amino}(pyridin-3-yl)methyl]piperidin-1-yl}ethan-1-one] | 1000 to 10000 nM |
| CC(=O)N1CCC([C@H](Nc2cc(-c3ccc4scc(C)c4c3)c3nccnc3c2)c2cccnc2)CC1 [Example 311, 1-{4-[(S)-{[8-(3-methyl-1-benzothiophen-5-yl)quinoxalin-6-yl]amino}(pyridin-3-yl)methyl]piperidin-1-yl}ethan-1-one] | 1 to 1000 nM |
| Cc1ncc(CNc2cc(-c3ccc4ccn(C)c4c3)c3nccnc3c2)o1 [Example 312, N-[(2-methyl-1,3-oxazol-5-yl)methyl]-8-(1-methyl-1H-indol-6-yl)quinoxalin-6-amine] | 1000 to 10000 nM |
